Assay results: ChEMBL document CHEMBL3244367, “Synthesis and determination of antiviral activity of the 2'(3')-O-methyl derivatives of ribavirin (1-beta-D-ribofuranosyl-1,2,4-triazole-3-carboxamide)” (1977)
Converted amounts (≈) assume the structure as drawn.

Tested on: Vaccinia virus
Assay: Antiviral activity against Vaccinia virus infected in primary rabbit kidney cells assessed as inhibition of virus-induced cytopathogenicity treated immediately after virus adsorption measured 2 days after virus infection
Format: functional
Conditions: Orthopoxvirus vaccinia, 48 h

Row | Structure (SMILES) | MIC50
1 | CO[C@H]1[C@@H](O)[C@H](n2cnc(C(N)=O)n2)O[C@@H]1CO | > 200 µg/mL
2 | CO[C@@H]1[C@H](O)[C@@H](CO)O[C@H]1n1cnc(C(N)=O)n1 | > 200 µg/mL
3 | NC(=O)c1ncn([C@@H]2O[C@H](CO)[C@@H](O)[C@H]2O)n1 [RIBAVIRIN] | 20 µg/mL (≈ 81.9 µM)
